In test [1] the target is human CXCR3A (Homo sapiens (Human), UniProt P49682). The test is described as follows: FLIPR assay. It is filed as cell-based. The following applies: CHO-K1 cells expressing the human CXCR3A coupled to Galpha(16); CXCL10 agonist 20 nM; Fluo-4-AM fluorescence; mean values if determined several times. The gist of the method:
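CHO-K1 cells expressing CXCR3A coupled to Gα16 were loaded with Fluo-4-AM for 1 h in Hepes-buffered HBSS, pH 7.4, with 5 mM probenecid. Compound dilutions were added on the FLIPR, followed by CXCL10 (added as a 20 nM solution). Baseline-subtracted peak fluorescence was fitted to a single-site curve for IC50.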

Test [2] concerns the target CXCR3 (Homo sapiens (Human), UniProt P49682). The test can be described thus: Receptor internalization assay. It is filed as cell-based. The following applies: human whole blood; final CXCL10 concentration 9 nM; 30 min 37° C.; CXCR3 cell surface expression on CD3 positive cells, flow cytometer; read-out: Internalization IC50. On the procedure: B): Receptor Internalization Assay:
Stock solutions of test compounds are made up at a concentration of 10 mM in DMSO, and serially diluted in PBS containing 0.5% BSA to concentrations required for inhibition dose response curves. Diluted compounds are then mixed with an equal volume of CXCL10 (Peprotech) diluted in PBS. Anticoagulated venous human whole blood is added to the mixture, which is then incubated in a CO2 incubator at 37° C. to allow for ligand mediated receptor internalization (final CXCL10 concentration is 9 nM). After 30′, the blood is mixed with fluorescently labeled CXCR3 and CD3 specific antibodies (Becton Dickinson) and incubated on ice for 10 minutes. Samples are then mixed with BD FACS Lysing Solution (Becton Dickinson) in order to eliminate red blood cells. After washing the cells with PBS containing 0.5% BSA, the samples are then analyzed in a flow cytometer (FACS Canto II, Becton Dickinson). For data analysis using FACSDiva software (Becton Dickinson), the mean fluorescence corresponding to CXCR3 cell surface expression was determined on CD3 positive cells. The program GraphPad Prism is used to fit the data to a single site dose response curve and to calculate IC50 values.

CXCR3, sequence (P49682 whole entry): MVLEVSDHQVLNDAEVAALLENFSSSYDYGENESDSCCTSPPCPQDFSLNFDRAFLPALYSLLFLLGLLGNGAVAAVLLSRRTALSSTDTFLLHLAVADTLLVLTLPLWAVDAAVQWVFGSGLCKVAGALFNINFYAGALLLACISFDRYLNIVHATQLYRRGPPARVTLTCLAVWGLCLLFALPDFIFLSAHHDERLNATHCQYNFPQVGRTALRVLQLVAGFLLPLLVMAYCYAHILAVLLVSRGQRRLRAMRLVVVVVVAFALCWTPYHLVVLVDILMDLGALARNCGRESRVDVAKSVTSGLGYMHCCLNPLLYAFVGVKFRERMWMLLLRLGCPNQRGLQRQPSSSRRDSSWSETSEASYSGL
human CXCR3A, sequence (P49682 whole entry): as above

What is called IC50 is the concentration at which inhibition is half-maximal. For `O=C(Cn1ccc2ccccc21)N1CCN(c2scnc2-c2nc3ccccc3[nH]2)CC1` [Example 4, 1-{4-[4-(1H-Benzoimidazol-2-yl)-thiazol-5-yl]-piperazin-1-yl}-2-indol-1-yl-ethanone], the IC50 in test [1] is 15 nM; in test [2], 2610 nM.

Regarding `O=C(Cn1cnc2cccnc21)N1CCN(c2scnc2-c2nc3ccccc3[nH]2)CC1` [Example 14, 1-{4-[4-(1H-Benzoimidazol-2-yl)-thiazol-5-yl]-piperazin-1-yl}-2-imidazo[4,5-b]pyridin-3-yl-ethanone], the values for the IC50 in test [1] and in test [2] were 11 nM and 1800 nM, respectively.

Turning to `O=C(Cn1ccc2cccnc21)N1CCN(c2scnc2-c2nc3ccccc3[nH]2)CC1` [Example 15, 1-{4-[4-(1H-Benzoimidazol-2-yl)-thiazol-5-yl]-piperazin-1-yl}-2-pyrrolo[2,3-b]pyridin-1-yl-ethanone], the IC50 in test [1] was found to be 14 nM; in test [2], 2420 nM.

In the case of `C[C@@H]1CN(c2scnc2-c2nc3ccccc3[nH]2)CCN1C(=O)Cn1cnc2cccnc21` [Example 17, 1-{(R)-4-[4-(1H-Benzoimidazol-2-yl)-thiazol-5-yl]-2-methyl-piperazin-1-yl}-2-imidazo[4,5-b]pyridin-3-yl-ethanone], the values for the IC50 in test [1] and in test [2] were 6 nM and 447 nM, respectively.

Consider `CC[C@@H]1CN(c2scnc2-c2nc3ccccc3[nH]2)CCN1C(=O)Cn1ccc2cccnc21` [Example 18, 1-{(R)-4-[4-(1H-Benzoimidazol-2-yl)-thiazol-5-yl]-2-ethyl-piperazin-1-yl}-2-pyrrolo[2,3-b]pyridin-1-yl-ethanone], for which the IC50 is 1 nM in test [1] and 2420 nM in test [2].

With `COC[C@H]1CN(c2scnc2-c2nc3ccccc3[nH]2)CCN1C(=O)Cn1ccc2cccnc21` [Example 19, 1-{(R)-4-[4-(1H-Benzoimidazol-2-yl)-thiazol-5-yl]-2-methoxymethyl-piperazin-1-yl}-2-pyrrolo[2,3-b]pyridin-1-yl-ethanone], the IC50 in test [1] turned out to be 25 nM; in test [2] it was 875 nM.

For the compound `Cc1cccc2[nH]c(-c3ncsc3N3CCN(C(=O)Cn4ccc5cccnc54)[C@H](C)C3)nc12` [Example 22, 1-{(R)-2-Methyl-4-[4-(4-methyl-1H-benzoimidazol-2-yl)-thiazol-5-yl]-piperazin-1-yl}-2-pyrrolo[2,3-b]pyridin-1-yl-ethanone], the IC50 amounted to 1 nM in test [1] and 568 nM in test [2].

Regarding `C[C@@H]1CN(c2scnc2-c2nc3ccc(Cl)cc3[nH]2)CCN1C(=O)Cn1ccc2cccnc21` [Example 23, 1-{(R)-4-[4-(6-Chloro-1H-benzoimidazol-2-yl)-thiazol-5-yl]-2-methyl-piperazin-1-yl}-2-pyrrolo[2,3-b]pyridin-1-yl-ethanone], the IC50 in test [1] came to 0.2 nM; in test [2], 181 nM.

Turning to `C[C@@H]1CN(c2scnc2-c2nc3ccc(C(C)(C)C)cc3[nH]2)CCN1C(=O)Cn1ccc2cccnc21` [Example 24, 1-{(R)-4-[4-(6-tert-Butyl-1H-benzoimidazol-2-yl)-thiazol-5-yl]-2-methyl-piperazin-1-yl}-2-pyrrolo[2,3-b]pyridin-1-yl-ethanone], the IC50 in test [1] is 1 nM; in test [2], 215 nM.

Consider `C[C@@H]1CN(c2scnc2-c2nc3cc(S(C)(=O)=O)ccc3[nH]2)CCN1C(=O)Cn1ccc2cccnc21` [Example 25, 1-{(R)-4-[4-(5-Methanesulfonyl-1H-benzoimidazol-2-yl)-thiazol-5-yl]-2-methyl-piperazin-1-yl}-2-pyrrolo[2,3-b]pyridin-1-yl-ethanone], for which the values for the half-maximal inhibitory concentration (IC50) in test [1] and in test [2] were 3 nM and 3140 nM, respectively.

Turning to `Cc1cc2[nH]c(-c3ncsc3N3CCN(C(=O)Cn4ccc5cccnc54)[C@H](C)C3)nc2cc1Cl` [Example 27, 1-{(R)-4-[4-(5-Chloro-6-methyl-1H-benzoimidazol-2-yl)-thiazol-5-yl]-2-methyl-piperazin-1-yl}-2-pyrrolo[2,3-b]pyridin-1-yl-ethanone], the IC50 is 3 nM in test [1] and 314 nM in test [2].
